Results on 15 compounds are retold here after US11274124B2, “Tubulysin analogues as anticancer agents and payloads for antibody-drug conjugates and methods of treatment therewith” (William Marsh Rice University, priority 2017, dated 2022).

SMILES strings stand for the structures. Where two headings read alike, the source gives them in different places.

Series [1] deals with MES SA (uterine sarcoma cell line). In words: In vitro cytotoxicity assay (CellTiter-Glo, 72 hours), MES SA. The series is classed as cell-based. As to conditions: Homo sapiens, MES-SA, 72 h. Background: ATP-based viability assays read luminescence as a measure of living cells.
Series [2] has as its system MES SA DX (MES SA cell line with marked multi-drug resistance). In words: In vitro cytotoxicity assay (CellTiter-Glo, 72 hours), MES SA DX. To be noted: Homo sapiens, MES-SA, 72 h.
Series [3] relates to HEK 293T (human embryonic kidney cancer cell line). In words: In vitro cytotoxicity assay (CellTiter-Glo, 72 hours), HEK 293T. As to conditions: Homo sapiens, HEK-293T, 72 h. The series is classed as cell-based.
The test system of series [4] is MES SA, MES SA DX and HEK 293T cells. In words: In vitro cytotoxicity assay, structure-activity discussion over the cell lines tested. As to conditions: refers to Tables 2 and 3.
[5] abbreviates: read-out: MES SA, IC50 Value in nM.
[6] abbreviates: read-out: MES SA DX, IC50 Value in nM.
[7] abbreviates: read-out: HEK 293T, IC50 Value in nM.

As to `CCOC(=O)[C@@H](C)C[C@H](Cc1ccccc1)NC(=O)c1csc([C@@H](C[C@H](C(C)C)N(C)C(=O)[C@H](CC)NC(=O)[C@H]2CCCCN2C)OC(C)=O)n1` [Tb93, Ethyl (2S,4R)-4-[({2-[(1R,3R)-1-acetoxy-4-methyl-3-{methyl[(2S)-2-({[(2R)-1-methylpiperidin-2-yl]-carbonyl}amino)butanoyl]amino}pentyl]-1,3-thiazol-4-yl}carbonyl)amino]-2-methyl-5-phenylpentanoate], the concentration for half-maximal inhibition (IC50) in series [1] (read-out: MES SA, IC50) turned out to be 0.15 nM; in series [1] (setting [5]) it was 0.15 nM; in series [2] (read-out: MES SA DX, IC50), 31.9 nM; in series [2] (setting [6]), 31.9 nM; in series [3] (read-out: HEK 293T, IC50), 0.2 nM; in series [3] (setting [7]), 0.2 nM. The “cytotoxicity potency (in words, structure-activity discussion)” value (shortened to “cytotoxicity potency”) in series [4] is recorded as “significant potencies”.

On to `COC(=O)[C@@H](C)C[C@H](Cc1ccccc1)NC(=O)c1nc([C@@H](C[C@H](C(C)C)N(C)C(=O)[C@@H](NC(=O)[C@H]2CCCN2C)C(C)C)OC(C)=O)sc1C` [Tb70, Methyl (2S,4R)-4-[({2-[(1R,3R)-1-acetoxy-4-methyl-3-{methyl[(2S)-3-methyl-2-({[(2R)-1-methyl-pyrrolidin-2-yl]carbonyl}amino)butanoyl]amino}pentyl]-5-methyl-1,3-thiazol-4-yl}carbonyl)amino]-2-methyl-5-phenylpentanoate], for which the IC50 was 3.11 nM in series [1] (setting [5]), more than 1000 nM in series [2] (setting [6]) and 2.32 nM in series [3] (setting [7]). Further, the “cytotoxicity potency” value in series [4] was “significant loss of potency”.

`CCCCN1CCCC[C@@H]1C(=O)N[C@H](C(=O)N(C)[C@H](C[C@@H](OC(C)=O)c1nc(C(=O)N[C@H]2CC[C@H](C(=O)OC)CC2)cs1)C(C)C)C(C)C` [Tb54, Methyl trans-4-[({2-[(1R,3R)-1-acetoxy-3-{[(2S)-2-({[(2R)-1-butylpiperidin-2-yl]carbonyl}amino)-3-methylbutanoyl](methyl)amino}-4-methylpentyl]-1,3-thiazol-4-yl}carbonyl)amino]cyclohexanecarboxylate]: the IC50 in series [1] (setting [5]), in series [2] (setting [6]) and in series [3] (setting [7]) was more than 1000 nM in each case. In addition, the “cytotoxicity potency” value in series [4] is recorded as “insignificant or low biological activity”.

As for `CC(=O)O[C@H](C[C@H](C(C)C)N(C)C(=O)[C@@H](NC(=O)[C@H]1CCCCN1C)C(C)C)c1nc(C(=O)N[C@@H](Cc2ccccc2)C[C@H](C)C(=O)O)cs1` [Tb61, (2S,4R)-4-[({2-[(1R,3R)-1-Acetoxy-4-methyl-3-{methyl[(2S)-3-methyl-2-({[(2R)-1-methylpiperidin-2-yl]carbonyl}amino)butanoyl]amino}pentyl]-1,3-thiazol-4-yl}carbonyl)amino]-2-methyl-5-phenylpentanoic acid], the concentration for half-maximal inhibition (IC50) in series [1] (setting [5]) is 6.07 nM; in series [2] (setting [6]), more than 1000 nM; in series [3] (setting [7]), 5.99 nM. The “cytotoxicity potency” value in series [4] was “exceptional potencies”.

With `COC(=O)CC[C@H](Cc1ccccc1)NC(=O)c1csc([C@@H](C[C@H](C(C)C)N(C)C(=O)[C@@H](NC(=O)[C@H]2CCCCN2C)C(C)C)OC(C)=O)n1` [Tb105, Methyl 4-{[(2-{1-acetoxy-4-methyl-3-[methyl(3-methyl-2-{[(1-methylpiperidin-2-yl)carbonyl]-amino}butanoyl)amino]pentyl}-1,3-thiazol-4-yl)carbonyl]amino}-5-phenylpentanoate], the half-inhibitory concentration (IC50) in series [1] (setting [5]) is 2.94 nM; in series [2] (setting [6]), more than 1000 nM; in series [3] (setting [7]) it was 1.53 nM. For the same compound, the “cytotoxicity potency” value in series [4] is on record as “considerable loss of activity”.

As to `CCOC(=O)[C@@H](C)C[C@H](Cc1ccccc1)NC(=O)c1csc([C@@H](C[C@H](C(C)C)N(C)C(=O)[C@H](CCC(C)C)NC(=O)[C@H]2CCCCN2C)OC(C)=O)n1` [Tb97, Ethyl (2S,4R)-4-[({2-[(1R,3R)-1-acetoxy-4-methyl-3-{methyl[(2S)-5-methyl-2-({[(2R)-1-methyl-piperidin-2-yl]carbonyl}amino)hexanoyl]amino}pentyl]-1,3-thiazol-4-yl}carbonyl)amino]-2-methyl-5-phenylpentanoate], the IC50 in series [1] (setting [5]) was 4.65 nM; in series [2] (setting [6]) it was more than 1000 nM; in series [3] (setting [7]) it was 2.87 nM. Moreover, the “cytotoxicity potency” value in series [4] is “lack of or significantly lower cytotoxicities”.

With `COC(=O)[C@@H](C)C[C@H](Cc1ccccc1)NC(=O)c1csc(C(=O)C[C@H](C(C)C)N(C)C(=O)[C@@H](NC(=O)[C@H]2CCCCN2C)C(C)C)n1` [Tb63, Methyl (2S,4R)-2-methyl-4-[({2-[(3R)-4-methyl-3-{methyl[(2S)-3-methyl-2-({[(2R)-1-methylpiperidin-2-yl]carbonyl}amino)butanoyl]amino}pentanoyl]-1,3-thiazol-4-yl}carbonyl)amino]-5-phenylpentanoate], the IC50 in series [1] (setting [5]), in series [2] (setting [6]) and in series [3] (setting [7]) was more than 1000 nM throughout. The “cytotoxicity potency” value in series [4] is given as “significant reduction in potency”.

Turning to `COC(=O)[C@@H](C)C[C@H](Cc1ccc2ccccc2c1)NC(=O)c1csc([C@@H](C[C@H](C(C)C)N(C)C(=O)[C@@H](NC(=O)[C@H]2CCCCN2C)C(C)C)OC(C)=O)n1` [Tb104, Methyl (2S)-4-{[(2-{1-acetoxy-4-methyl-3-[methyl(3-methyl-2-{[(1-methylpiperidin-2-yl)carbonyl]-amino}butanoyl)amino]pentyl}-1,3-thiazol-4-yl)carbonyl]amino}-2-methyl-5-(2-naphthyl)pentanoate], the IC50 in series [1] (setting [5]) is 9.5 nM; in series [2] (setting [6]) it was more than 1000 nM; in series [3] (setting [7]), 12.8 nM. Also, the “cytotoxicity potency” value in series [4] is reported as “modest potency”.

In the case of `CC[C@H](C)[C@H](NC(=O)c1cccn1C)C(=O)N(C)[C@H](C[C@@H](OC(C)=O)c1nc(C(=O)N[C@@H](Cc2ccccc2)C[C@H](C)C(=O)OC)cs1)C(C)C` [Tb50], the IC50 in series [1] (setting [5]), in series [2] (setting [6]) and in series [3] (setting [7]) was more than 1000 nM in each case. For the same compound, the “cytotoxicity potency” value in series [4] is “insignificant or low biological activity”.

Regarding `CC[C@H](C)[C@H](NC(=O)[C@H]1CCCCN1C)C(=O)N(C)[C@H](CCc1nc(C(=O)N[C@@H](Cc2ccccc2)C[C@H](C)C(=O)OC)cs1)C(C)C` [PTb-D42], in series [4], the “cytotoxicity potency” value was “significant reduction in potency”.

On to `CC(=O)O[C@H](C[C@H](C(C)C)N(C)C(=O)[C@@H](NC(=O)[C@H]1CCCCN1C)C(C)C)c1nc(C(=O)N[C@@H](Cc2ccccc2)C[C@H](C)C(=O)O)c(C)s1` [Tb67, (2S,4R)-4-[({2-[(1R,3R)-1-Acetoxy-4-methyl-3-{methyl[(2S)-3-methyl-2-({[(2R)-1-methylpiperidin-2-yl]carbonyl}amino)butanoyl]amino}pentyl]-5-methyl-1,3-thiazol-4-yl}carbonyl)amino]-2-methyl-5-phenylpentanoic acid], for which the IC50 in series [1] (read-out: MES SA, IC50) was determined as 0.836 nM; in series [1] (setting [5]) it was 0.836 nM; in series [2] (read-out: MES SA DX, IC50) it was 71.5 nM; in series [2] (setting [6]), 71.5 nM; in series [3] (read-out: HEK 293T, IC50) it was 0.144 nM; in series [3] (setting [7]), 0.143 nM. The “cytotoxicity potency” value in series [4] is reported as “some loss of potency”.

Regarding `CCOC(=O)[C@@H](C)C[C@H](Cc1ccccc1)NC(=O)c1csc([C@@H](C[C@H](C(C)C)N(C)C(=O)[C@H](CCC(C)C)NC(=O)[C@H]2CCCN2C)OC(C)=O)n1` [Tb98, Ethyl (2S,4R)-4-[({2-[(1R,3R)-1-acetoxy-4-methyl-3-{methyl[(2S)-5-methyl-2-({[(2R)-1-methyl-pyrrolidin-2-yl]carbonyl}amino)hexanoyl]amino}pentyl]-1,3-thiazol-4-yl}carbonyl)amino]-2-meth-yl-5-phenylpentanoate], the values for the IC50 in series [1] (setting [5]), in series [2] (setting [6]) and in series [3] (setting [7]) were 41.8 nM, 393 nM and 26.5 nM, respectively. In addition, the “cytotoxicity potency” value in series [4] is “lack of or significantly lower cytotoxicities”.

With `CC(=O)O[C@H](C[C@H](C(C)C)N(C)C(=O)[C@@H](NC(=O)[C@H]1CCCCN1C)C(C)C)c1nc(C(=O)N[C@@H](Cc2ccccc2)C[C@H](C)C(=O)O)c(C(C)C)s1` [Tb73, (2S,4R)-4-[({2-[(1R,3R)-1-Acetoxy-4-methyl-3-{methyl[(2S)-3-methyl-2-({[(2R)-1-methylpiperidin-2-yl]carbonyl}amino)butanoyl]amino}pentyl]-5-isopropyl-1,3-thiazol-4-yl}carbonyl)amino]-2-methyl-5-phenylpentanoic acid], the IC50 in series [1] (read-out: MES SA, IC50) came to 1.28 nM; in series [1] (setting [5]) it was 1.28 nM; in series [2] (read-out: MES SA DX, IC50), 44.7 nM; in series [2] (setting [6]), 44.7 nM; in series [3] (read-out: HEK 293T, IC50), 0.16 nM; in series [3] (setting [7]) it was 0.16 nM. For the same compound, the “cytotoxicity potency” value in series [4] is recorded as “significant loss of potency”.

`CC[C@H](C)[C@H](NC(=O)[C@H]1CCCCN1C)C(=O)N(C)[C@H](CCc1nc(C(=O)N[C@@H](Cc2ccccc2)C[C@H](C)C(=O)O)cs1)C(C)C` [PTb-D43, pretubulysin D, reference compound]: the “cytotoxicity potency” value in series [4] was “significant reduction in potency”.

With `COC(=O)[C@@H](C)C[C@H](Cc1ccccc1)NC(=O)c1nc([C@@H](C[C@H](C(C)C)N(C)C(=O)[C@@H](NC(=O)[C@H]2C[C@H](O)CCN2C)C(C)C)OC(C)=O)sc1C(C)C` [Tb74, Methyl (2S,4R)-4-[({2-[(1R,3R)-1-acetoxy-3-{[(2S)-2-({[(2R,4R)-4-hydroxy-1-methylpiperidin-2-yl]-carbonyl}amino)-3-methylbutanoyl](methyl)amino}-4-methylpentyl]-5-isopropyl-1,3-thiazol-4-yl}-carbonyl)amino]-2-methyl-5-phenylpentanoate], the IC50 in series [1] (setting [5]) is 5.32 nM; in series [2] (setting [6]) it was more than 400 nM; in series [3] (setting [7]) it was 2.46 nM.

A word on the IC50: it is the point on the concentration scale where inhibition reaches its midpoint.
